The text below walks through data of patent US12257247B2 (Monte Rosa Therapeutics AG, priority 2023, dated 2025).

Like-named read-outs stand apart in the source and are kept apart here. Some results are limits rather than exact numbers.

In general, Dmax refers to the greatest extent of degradation seen. For orientation: DC50 means the midpoint of the concentration-degradation curve.

This experiment has as its target T1, VAV1 (Homo sapiens, UniProt P15498+Q96SW2).
T1 construct: A heterozygous VAV1 C-terminal HiBiT knock-in pool was generated at Monte Rosa Therapeutics from a clonal Jurkat cell; endogenous in cells; host or cells: Jurkat clone stably expressing LgBiT, homozygous GSPT1-G575N; heterozygous VAV1-HiBiT knock-in pool
As to the kind of experiment: VAV1 degradation activity, VAV1-HiBiT knock-in Jurkat luminescence assay (Example A, Table 1). The class given is cell-based. The settings on record: VAV1-HiBiT knock-in Jurkat cells; for Dmax: Jurkat. The method, boiled down: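 Luminescence was measured at 6 and 24 h after adding compound (10 μM stock) to VAV1-HiBiT knock-in Jurkat cells, which had been pre-incubated ~16 h at 37° C. in RPMI/10% FBS containing Endurazine. EC50 values came from control-normalised responses fitted to a 3-parameter logistic model with hillslope fixed at 1.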
(In general: HiBiT is a short tag that completes a luciferase, so light tracks the accessible tagged protein.)

The mark [1] stands for this setting: luminescence read at 6 and 24 hours, read-out: VAV1 Dmax %.
Setting [2] is: luminescence read at 6 and 24 hours, read-out: VAV1 Dmax %, class.
The mark [3] stands for this setting: luminescence read at 6 and 24 hours, read-out: VAV1 DC50.
The mark [4] stands for this setting: luminescence read at 6 and 24 hours, read-out: VAV1 DC50 (nM), class.
Where [5] appears, read: luminescence read at 6 and 24 hours after compound addition, read-out: VAV1 Dmax %.
Setting [6] is: luminescence read at 6 and 24 hours after compound addition, read-out: VAV1 Dmax %, class.
The mark [7] stands for this setting: luminescence read at 6 and 24 hours after compound addition, read-out: VAV1 DC50.
The mark [8] stands for this setting: luminescence read at 6 and 24 hours after compound addition, read-out: VAV1 DC50 (nM), class.

As for `CN1CCCN(c2ccc(-c3cccc(C4CCC(=O)NC4=O)c3Cl)cc2F)C1=O` (stereo not drawn) [Compound 436, 3-(2-chloro-3′-fluoro-4′-(3-methyl-2-oxotetrahydropyrimidin-1(2H)-yl)-[1,1′-biphenyl]-3-yl)piperidine-2,6-dione], the Dmax is 96% under setting [1] and > 90% under setting [2]. For the same compound, the DC50 is, setting by setting: under setting [3], 8.75 nM; under setting [4], ≤ 100 nM.
For `O=C1CCC(c2cccc(-c3ccc(N4C(=O)NCCC45CCC5)cc3)c2Cl)C(=O)N1` (stereo not drawn) [Compound 349, 3-(2-chloro-4′-(6-oxo-5,7-diazaspiro[3.5]nonan-5-yl)-[1,1′-biphenyl]-3-yl)piperidine-2,6-dione], the Dmax was 98.3% under setting [1] and > 90% under setting [2]. The DC50 under setting [3] worked out at 2.21 nM and the DC50 under setting [4] was ≤ 100 nM.
In the case of `CN1CCN(c2ccc(-c3cccc(C4CCC(=O)NC4=O)c3Cl)cc2)C1=O` (stereo not drawn) [Compound 387, 3-(2-chloro-4′-(3-methyl-2-oxoimidazolidin-1-yl)-[1,1′-biphenyl]-3-yl)piperidine-2,6-dione], the Dmax is 58.4% under setting [1] and < 60% under setting [2]. The DC50 by setting is: under setting [3], 865 nM; under setting [4], 100 to 1000 nM.
The corresponding values for `Cn1ccc(COc2ccc(-c3cccc(C4CCC(=O)NC4=O)c3Cl)c(Cl)c2)n1` (stereo not drawn) [Compound 177, 3-(2,2′-dichloro-4′-((1-methyl-1H-pyrazol-3-yl)methoxy)-[1,1′-biphenyl]-3-yl)piperidine-2,6-dione] are 29.2%, < 60%, ≥ 10000 nM and > 1000 nM.
The corresponding values for `O=C1CCC(c2cccc(-c3ccc(CN4C(=O)CC45CCOCC5)cc3)c2Cl)C(=O)N1` (stereo not drawn) [Compound 278] are 95.9%, > 90%, 5.33 nM and ≤ 100 nM.
`CN(C(=O)c1ccn(C)n1)c1ccc(-c2cccc(C3CCC(=O)NC3=O)c2Cl)cc1` (stereo not drawn) [Compound 475, N-(2′-chloro-3′-(2,6-dioxopiperidin-3-yl)-[1,1′-biphenyl]-4-yl)-N, 1-dimethyl-1H-pyrazole-3-carboxamide]: the Dmax is, setting by setting: under setting [1], 73.2%; under setting [2], 60 to 90%. The DC50 was 98.9 nM under setting [3] and ≤ 100 nM under setting [4].
As for `O=C1CCC(c2cc(F)cc(-c3ccc(-n4ccccc4=O)cc3)c2Cl)C(=O)N1` (stereo not drawn) [Compound 361, 3-(2-chloro-5-fluoro-4′-(2-oxopyridin-1(2H)-yl)-[1,1′-biphenyl]-3-yl)piperidine-2,6-dione], the Dmax is 84.4% under setting [1] and 60 to 90% under setting [2]. The DC50 is, setting by setting: under setting [3], 76.4 nM; under setting [4], ≤ 100 nM.
The corresponding values for `O=C1CCC(c2cccc(-c3ccc(Cc4ncccn4)cc3)c2Cl)C(=O)N1` (stereo not drawn) [Compound 208] are 97.2%, > 90%, 4.54 nM and ≤ 100 nM.
The corresponding values for `[2H]c1c([2H])c(-n2ccccc2=O)c([2H])c([2H])c1-c1cccc(C2CCC(=O)NC2=O)c1Cl` (stereo not drawn) [Compound 462, 3-(2-chloro-3-(2,3,5,6-tetradeuterio-4-(2-oxo-1-pyridyl)phenyl)phenyl)piperidine-2,6-dione] are 95.5%, > 90%, 14.8 nM and ≤ 100 nM.
The corresponding values for `O=C1CCC(c2cccc(-c3ccc(N4Cc5nccn5CC4=O)cc3)c2Cl)C(=O)N1` (stereo not drawn) [Compound 328] are 90.8%, > 90%, 15 nM and ≤ 100 nM.
With `O=C1CCC(c2cccc(-c3ccc(N4CCCN(CC(F)F)C4=O)cc3)c2Cl)C(=O)N1` (stereo not drawn) [Compound 429, 3-(2-chloro-4′-(3-(2,2-difluoroethyl)-2-oxotetrahydropyrimidin-1(2H)-yl)-[1,1′-biphenyl]-3-yl)piperidine-2,6-dione], the Dmax is, setting by setting: under setting [1], 96.9%; under setting [2], > 90%. The DC50 by setting is: under setting [3], 5.19 nM; under setting [4], ≤ 100 nM.
For the compound `CN1CCCN(Cc2ccc(-c3cccc(C4CCC(=O)NC4=O)c3Cl)cn2)C1=O` (stereo not drawn) [Compound 432, 3-(2-chloro-3-(6-((3-methyl-2-oxotetrahydropyrimidin-1(2H)-yl)methyl)pyridin-3-yl)phenyl)piperidine-2,6-dione], the Dmax by setting is: under setting [1], 71.9%; under setting [2], 60 to 90%. Moreover, the DC50 reads like this: under setting [3], 182 nM; under setting [4], 100 to 1000 nM.
For the compound `Cn1ccc(Cc2noc3cc(-c4cccc(C5CCC(=O)NC5=O)c4Cl)ccc23)n1` (stereo not drawn) [Compound 510, 3-(2-chloro-3-(3-((1-methyl-1H-pyrazol-3-yl)methyl)benzo[d]isoxazol-6-yl)phenyl)piperidine-2,6-dione], the Dmax is, setting by setting: under setting [5], 89.2%; under setting [6], 60 to 90%. The DC50 reads like this: under setting [7], 78.6 nM; under setting [8], ≤ 100 nM.
As to `COC1CCCC(=O)N1Cc1ccc(-c2cccc(C3CCC(=O)NC3=O)c2Cl)cc1` (stereo not drawn) [Compound 271], the Dmax under setting [1] was determined as 83.8% and the Dmax under setting [2] lay within 60 to 90%. The DC50 reads like this: under setting [3], 50.9 nM; under setting [4], ≤ 100 nM.
With `O=C1CC[C@H](c2cccc(-c3ccc(-n4ccccc4=O)cc3)c2Cl)C(=O)N1` [Compound 210, (R)-3-(2-chloro-4′-(2-oxopyridin-1(2H)-yl)-[1,1′-biphenyl]-3-yl)piperidine-2,6-dione], the Dmax was 96.9% under setting [1] and > 90% under setting [2]. The DC50 runs as follows: under setting [3], 40.9 nM; under setting [4], ≤ 100 nM.
The corresponding values for `Cn1cnc(Cn2c(=O)oc3cc(-c4cccc(C5CCC(=O)NC5=O)c4Cl)ccc32)c1` (stereo not drawn) [Compound 392, 3-(2-chloro-3-(3-((1-methyl-1H-imidazol-4-yl)methyl)-2-oxo-2,3-dihydrobenzo[d]oxazol-6-yl)phenyl)piperidine-2,6-dione] are 94.8%, > 90%, 12.8 nM and ≤ 100 nM.
For `O=C1CCC(c2cccc(-c3ccc(N4C(=O)CCC45COC5)cc3)c2Cl)C(=O)N1` (stereo not drawn) [Compound 355, 3-(2-chloro-4′-(6-oxo-2-oxa-5-azaspiro[3.4]octan-5-yl)-[1,1′-biphenyl]-3-yl)piperidine-2,6-dione], the Dmax runs as follows: under setting [1], 91.8%; under setting [2], > 90%. In addition, the DC50 is 15.9 nM under setting [3] and ≤ 100 nM under setting [4].
Take `CC1CCCN(Cc2ccc(-c3cccc(C4CCC(=O)NC4=O)c3Cl)cc2)C1=O` (stereo not drawn) [Compound 287]: the Dmax runs as follows: under setting [1], 95.5%; under setting [2], > 90%. The DC50 runs as follows: under setting [3], 12.5 nM; under setting [4], ≤ 100 nM.
On to `Cn1cncc1Cn1ncc2cc(-c3cccc(C4CCC(=O)NC4=O)c3Cl)ccc21` (stereo not drawn) [Compound 508, 3-(2-chloro-3-(1-((1-methyl-1H-imidazol-5-yl)methyl)-1H-indazol-5-yl)phenyl)piperidine-2,6-dione], for which the Dmax reads like this: under setting [5], 92%; under setting [6], > 90%. In addition, the DC50 runs as follows: under setting [7], 63.2 nM; under setting [8], ≤ 100 nM.
As to `CN1CCC2(CC2)N(c2ccc(-c3cccc(C4CCC(=O)NC4=O)c3Cl)cc2)C1=O` (stereo not drawn) [Compound 366, 3-(2-chloro-4′-(6-methyl-5-oxo-4,6-diazaspiro[2.5]octan-4-yl)-[1,1′-biphenyl]-3-yl)piperidine-2,6-dione], the Dmax was 97.8% under setting [1] and > 90% under setting [2]. For the same compound, the DC50 runs as follows: under setting [3], 1.87 nM; under setting [4], ≤ 100 nM.
The corresponding values for `COc1ccn(Cc2ccc(-c3cccc(C4CCC(=O)NC4=O)c3Cl)cc2)c(=O)c1` (stereo not drawn) [Compound 175, 3-[2-chloro-3-[4-[(4-methoxy-2-oxo-1-pyridyl)methyl]phenyl]phenyl]piperidine-2,6-dione] are 87.1%, 60 to 90%, 31.6 nM and ≤ 100 nM.
With `O=C1CCC(c2cccc(-c3ccc(N4C(=O)OCCC45CC5)cc3)c2Cl)C(=O)N1` (stereo not drawn) [Compound 345, 3-(2-chloro-4′-(5-oxo-6-oxa-4-azaspiro[2.5]octan-4-yl)-[1,1′-biphenyl]-3-yl)piperidine-2,6-dione], the Dmax under setting [1] was determined as 97.9% and the Dmax under setting [2] is > 90%. For the same compound, the DC50 by setting is: under setting [3], 3.53 nM; under setting [4], ≤ 100 nM.
In the case of `O=C1CCC(c2cccc(-c3ccc4c(c3)CC(=O)N4CC3CC3)c2Cl)C(=O)N1` (stereo not drawn) [Compound 506, 3-(2-chloro-3-(1-(cyclopropylmethyl)-2-oxoindolin-5-yl)phenyl)piperidine-2,6-dione], the Dmax by setting is: under setting [5], 63.7%; under setting [6], 60 to 90%. Besides, the DC50 by setting is: under setting [7], 1770 nM; under setting [8], > 1000 nM.
In the case of `O=C1CCC(c2cccc(-c3ccc(CN4CC(C(F)(F)F)OCC4=O)cc3)c2Cl)C(=O)N1` (stereo not drawn) [Compound 258], the Dmax is 94.5% under setting [1] and > 90% under setting [2]. The DC50 runs as follows: under setting [3], 12.6 nM; under setting [4], ≤ 100 nM.
